Source: US20260224536A1, “ARYL HETEROCYCLIC KV1.3 INHIBITOR, PREPARATION METHOD THEREFOR, AND USE THEREOF” (SHANGHAI SHENSHI WISE TECHNOLOGY CO., LTD., priority 2022, published 2026)

What follows are compounds tested against Kv1.3 potassium channel (Homo sapiens, UniProt P22001) (assay: Whole-cell patch-clamp assay for inhibitory activity against Kv1.3 (peak current)). Conditions: HEK293 cells stably expressing Kv1.3, patch-clamp.
Chain of Kv1.3 potassium channel (P22001 whole entry): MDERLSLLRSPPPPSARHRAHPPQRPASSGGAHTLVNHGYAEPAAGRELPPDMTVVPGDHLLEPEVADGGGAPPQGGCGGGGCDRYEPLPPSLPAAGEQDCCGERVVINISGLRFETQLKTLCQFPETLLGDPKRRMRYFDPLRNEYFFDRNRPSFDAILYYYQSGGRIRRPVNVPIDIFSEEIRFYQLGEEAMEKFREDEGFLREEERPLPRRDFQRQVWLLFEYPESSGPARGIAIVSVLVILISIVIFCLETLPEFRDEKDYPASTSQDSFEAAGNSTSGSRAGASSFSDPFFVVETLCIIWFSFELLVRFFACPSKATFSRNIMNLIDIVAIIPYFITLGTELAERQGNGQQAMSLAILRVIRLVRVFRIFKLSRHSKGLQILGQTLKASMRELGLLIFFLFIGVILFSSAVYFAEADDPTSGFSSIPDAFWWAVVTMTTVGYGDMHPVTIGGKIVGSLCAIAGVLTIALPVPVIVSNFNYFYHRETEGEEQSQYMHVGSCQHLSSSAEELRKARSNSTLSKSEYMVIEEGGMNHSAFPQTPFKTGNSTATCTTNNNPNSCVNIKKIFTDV
Assay type: cell-based
Source text: The voltage stimulation protocol for recording whole-cell Kv1.X potassium currents via patch-clamp was as follows. After formation of a whole-cell seal, the cell membrane voltage was clamped at −80 mV, and then stepped to +40 mV for 500 ms. […] The test data were acquired by EPC-10 amplifier (HEKA) and stored in the PatchMaster (HEKA) software. Recording electrodes were drawn from capillary glass tubes using a microelectrode puller. Under an inverted microscope, the recording electrode was brought into contact with the cell surface by manipulating a microelectrode manipulator. Negative-pressure suction was applied to form a GΩ seal. After formation of the […], a rapid capacitance compensation was given. The application of negative pressure was continued to rupture the cell membrane, forming a whole-cell recording mode. Then, a slow capacitance compensation was given, and the membrane capacitance and series resistance were recorded. No current leakage compensation was provided. Once the whole-cell recorded Kv1.X current stabilized, drug administration was started. Each drug concentration was allowed to act for 5 min (or until the current reached a steady state) before the next concentration was tested. Multiple concentrations were tested for each test compound. The cover glass plated with the cells was placed in a recording bath of the inverted microscope. The test compound and the compound-free extracellular fluid were allowed to sequentially flow through the recording bath from low concentrations to high concentrations using a gravity perfusion method, thus acting on the cells, and liquid exchange was performed using a vacuum pump during recording. For each cell, the current detected in the compound-free extracellular liquid was used as its own control group. The test was independently repeated three times using at least three cells per concentration. All electrophysiological experiments were performed at room temperature. […] First, the peak current after the action of each drug concentration and the peak current of the blank control were standardized and then the inhibition rate corresponding to each drug concentration was calculated Subsequently, the mean, standard deviation (SD), and standard error (SE) were calculated for the inhibition rate corresponding to each concentration. Using the above equation, the IC50 value for each compound was calculated, and the dose-dependent effect was subjected to non-linear fitting, where IC50 is the half maximal inhibitory concentration. The IC50 calculation and the curve fitting were performed using the GraphPad Prism software.
With `Cn1ccc(-c2nnc3n2C[C@H](c2c(O)ccc(Cl)c2Cl)C3)cc1=O` [Example 39, (S)-4-(6-(2,3-Dichloro-6-hydroxyphenyl)-6,7-dihydro-5H-pyrrolo[2,1-c][1,2,4]triazol-3-yl)-1-methylpyidin-2(1H)-one] the IC50 was 52.1 nM. In the case of `Cn1cc(-c2nnc3n2C[C@H](c2c(O)ccc(Cl)c2Cl)C3)cn1` [Example 40, (S)-3,4-Dichloro-2-(3-(1-methyl-1H-pyrazol-4-yl)-6,7-dihydro-5H-pyrrolo[2,1-c][1,2,4]triazol-6-yl)phenol], the IC50 is reported as 10.6 nM. `Oc1ccc(Cl)c(Cl)c1[C@@H]1Cc2nnc(-c3cccc4[nH]ncc34)n2C1` [Example 41, (S)-2-(3-(1H-Indazol-4-yl)-6,7-dihydro-5H-pyrrolo[2,1-c][1,2,4]triazol-6-yl)-3,4-dichlorophenol] showed an IC50 of 23.8 nM. For `Nc1ccc(-c2nnc3n2C[C@H](c2c(O)ccc(Cl)c2Cl)C3)cn1` [Example 42, (S)-2-(3-(6-Aminopyridin-3-yl)-6,7-dihydro-5H-pyrrolo[2,1-c][1,2,4]triazol-6-yl)-3,4-dichlorophenol], the IC50 was 13 nM. `Nc1cc(-c2nnc3n2C[C@H](c2c(O)ccc(Cl)c2Cl)C3)ccn1` [Example 43, (S)-2-(3-(2-Aminopyridin-4-yl)-6,7-dihydro-5H-pyrrolo[2,1-c][1,2,4]triazol-6-yl)-3,4-dichlorophenol] gave an IC50 of 19.7 nM. `OCCn1cc(-c2nnc3n2C[C@H](c2c(O)ccc(Cl)c2Cl)C3)cn1` [Example 44, (S)-3,4-Dichloro-2-(3-(1-(2-hydroxyethyl)-1H-pyrazol-4-yl)-6,7-dihydro-5H-pyrrolo[2,1-c][1,2,4]triazol-6-yl)phenol] showed an IC50 of 8.11 nM. For `Oc1ccc(Cl)c(Cl)c1[C@@H]1Cc2nnc(C3CNC3)n2C1` [Example 45, (S)-2-(3-(Azetidin-3-yl)-6,7-dihydro-5H-pyrrolo[2,1-c][1,2,4]triazol-6-yl)-3,4-dichlorophenol], the IC50 was 1.5 nM. For `Oc1ccc(Cl)c(Cl)c1[C@@H]1Cc2nnc(-c3cn[nH]c3)n2C1` [Example 46, (S)-2-(3-(1H-Pyrazol-4-yl)-6,7-dihydro-5H-pyrrolo[2,1-c][1,2,4]triazol-6-yl)-3,4-dichlorophenol], the IC50 was 5.12 nM. Work on `Oc1ccc(Cl)c(Cl)c1[C@@H]1Cc2nnc([C@H]3CCNC3)n2C1` [Example 47, 3,4-Dichloro-2-((S)-3-((S)-pyrrolidin-3-yl)-6,7-dihydro-5H-pyrrolo[2,1-c][1,2,4]triazol-6-yl)phenol] yielded an IC50 of 1.3 nM. Compound `Oc1ccc(Cl)c(Cl)c1[C@@H]1Cc2nnc([C@@H]3CCNC3)n2C1` [Example 48, 3,4-dichloro-2-((S)-3-((R)-pyrrolidin-3-yl)-6,7-dihydro-5H-pyrrolo[2,1-c][1,2,4]triazol-6-yl)phenol] has an IC50 of 8.49 nM. `CN1CCC(c2nnc3n2C[C@H](c2c(O)ccc(Cl)c2Cl)C3)C1` (stereo partly drawn) [Example 49, 3,4-Dichloro-2-((6S)-3-(1-methylpyrrolidin-3-yl)-6,7-dihydro-5H-pyrrolo[2,1-c][1,2,4]triazol-6-yl)phenol] was tested, and the IC50 was 3.64 nM. For `COC(=O)N1CC[C@@H](c2nnc3n2C[C@H](c2c(O)ccc(Cl)c2Cl)C3)C1` [Example 51, methyl (R)-3-((S)-6-(2,3-dichloro-6-hydroxyphenyl)-6,7-dihydro-5H-pyrrolo[2,1-c][1,2,4]triazol-3-yl)pyrrolidine-1-carboxylate], the IC50 was 7.24 nM. For `O=C1C[C@@H](c2nnc3n2C[C@H](c2c(O)ccc(Cl)c2Cl)C3)CN1` [Example 52, (R)-4-((S)-6-(2.3-Dichloro-6-hydroxyphenyl)-6,7-dihydro-5H-pyrrolo[2,1-c][1,2,4]triazol-3-yl)pyrrolidin-2-one], the IC50 was 14 nM. `Oc1ccc(Cl)c(Cl)c1[C@@H]1Cc2nnc([C@H]3CCOC3)n2C1` [Example 55, 3,4-dichloro-2-((S)-3-((R)-tetrahydrofuran-3-yl)-6,7-dihydro-5H-pyrrolo[2,1-c][1,2,4]triazol-6-yl)phenol] was tested, and the IC50 was 12 nM. Compound `Oc1ccc(Cl)c(Cl)c1[C@@H]1Cc2nnc([C@@H]3CCCNC3)n2C1` [Example 59, 3,4-dichloro-2-((S)-3-((R)-piperidin-3-yl)-6,7-dihydro-5H-pyrrolo[2,1-c][1,2,4]triazol-6-yl)phenol] has an IC50 of 2.56 nM. `Oc1ccc(Cl)c(Cl)c1[C@@H]1Cc2nnc([C@H]3C[C@H]4CC[C@@H]3O4)n2C1` [Example 60, 2-((S)-3-((1S,2R,4R)-7-Oxabicyclo[2.2.1]heptan-2-yl)-6,7-dihydro-5H-pyrrolo[2,1-c][1,2,4]triazol-6-yl)-3,4-dichlorophenol] showed an IC50 of 27.6 nM. `Oc1ccc(Cl)c(Cl)c1[C@@H]1Cc2nnc([C@H]3C[C@@H]4CC[C@H]3O4)n2C1` [Example 62, 2-((S)-3-((1R,2R,4S)-7-Oxabicyclo[2.2.1]heptan-2-yl)-6,7-dihydro-5H-pyrrolo[2,1-c][1,2,4]triazol-6-yl)-3,4-dichlorophenol] showed an IC50 of 16.4 nM. With `C[C@]1(c2nnc3n2C[C@H](c2c(O)ccc(Cl)c2Cl)C3)CCOC1` [Example 65, 3,4-dichloro-2-((S)-3-((R)-3-methyltetrahydrofuran-3-yl)-6,7-dihydro-5H-pyrrolo[2,1-c][1,2,4]triazol-6-yl)phenol] the IC50 was 51.7 nM. Compound `Oc1ccc(Cl)c(Cl)c1[C@@H]1Cc2nnc(C34COC(C3)C4)n2C1` [Example 66, (S)-2-(3-(2-Oxabicyclo[2.1.1]hexan-4-yl)-6,7-dihydro-5H-pyrrolo[2,1-c][1,2,4]triazol-6-yl)-3,4-dichlorophenol] has an IC50 of 33.3 nM. In the case of `Oc1ccc(Cl)c(Cl)c1[C@@H]1Cc2nnc(C3CCCC3)n2C1` [Example 67, (S)-3,4-Dichloro-2-(3-cyclopentyl-6,7-dihydro-5H-pyrrolo[2,1-c][1,2,4]triazol-6-yl)phenol], the IC50 is reported as 10.2 nM. With `Oc1ccc(Cl)c(Cl)c1[C@@H]1Cc2nnc([C@@H]3CCCOC3)n2C1` [Example 68, 3,4-Dichloro-2-((S)-3-((S)-tetrahydro-2H-pyran-3-yl)-6,7-dihydro-5H-pyrrolo[2,1-c][1,2,4]triazol-6-yl)phenol] the IC50 was 16 nM. `Oc1ccc(Cl)c(Cl)c1[C@@H]1Cc2nnc([C@@]34COCC3C4)n2C1` (stereo partly drawn) [Example 72, 2-((6S)-3-((1S)-3-Oxabicyclo[3.1.0]hexan-1-yl)-6,7-dihydro-5H-pyrrolo[2,1-c][1,2,4]triazol-6-yl)-3,4-dichlorophenol] gave an IC50 of 39.1 nM. `Oc1ccc(Cl)c(Cl)c1[C@@H]1Cc2nnc([C@]34COCC3C4)n2C1` (stereo partly drawn) [Example 73, 2-((6S)-3-((1R)-3-oxabicyclo[3.1.0]hexan-1-yl)-6,7-dihydro-5H-pyrrolo[2,1-c][1,2,4]triazol-6-yl)-3,4-dichlorophenol] was tested, and the IC50 was 24.7 nM. `COc1cccc(-c2nnc3n2C[C@H](c2c(O)ccc(Cl)c2Cl)C3)c1` [Example 76, (S)-3,4-Dichloro-2-(3-(3-methoxyphenyl)-6,7-dihydro-5H-pyrrolo[2,1-c][1,2,4]triazol-6-yl)phenol] was tested, and the IC50 was 27.9 nM. In the case of `COc1cccc(-c2nnc3n2C[C@@H](c2c(O)ccc(Cl)c2Cl)C3)c1` [Example 77, (R)-3,4-dichloro-2-(3-(3-methoxyphenyl)-6,7-dihydro-5H-pyrrolo[2,1-c][1,2,4]triazol-6-yl)phenol], the IC50 is reported as 45.2 nM. Work on `Oc1ccc(Cl)c(Cl)c1[C@@H]1Cc2nnc(C3CCN(C4CCCCC4)CC3)n2C1` [Example 78, (S)-3,4-Dichloro-2-(3-(1-cyclohexylpiperidin-4-yl)-6,7-dihydro-5H-pyrrolo[2,1-c][1,2,4]triazol-6-yl)phenol] yielded an IC50 of 12.6 nM. For `CC(C)N1CC[C@@H](c2nnc3n2C[C@H](c2c(O)ccc(Cl)c2Cl)C3)C1` [Example 80, 3,4-Dichloro-2-((S)-3-((R)-1-isopropylpyrrolidin-3-yl)-6,7-dihydro-5H-pyrrolo[2,1-c][1,2,4]triazol-6-yl)phenol], the IC50 was 2.14 nM. In the case of `CC(=O)N1CC[C@@H](c2nnc3n2C[C@H](c2c(O)ccc(Cl)c2Cl)C3)C1` [Example 81, 1-((R)-3-((S)-6-(2,3-Dichloro-6-hydroxyphenyl)-6,7-dihydro-5H-pyrrolo[2,1-c][1,2,4]triazol-3-yl)pyrrolidin-1-yl)ethan-1-one], the IC50 is reported as 11.3 nM. `CC(C)N1CCC(N2CC[C@@H](c3nnc4n3C[C@H](c3c(O)ccc(Cl)c3Cl)C4)C2)CC1` [Example 82, 3,4-Dichloro-2-((S)-3-((R)-1-(1-isopropylpiperidin-4-yl)pyrrolidin-3-yl)-6,7-dihydro-5H-pyrrolo[2,1-c][1,2,4]triazol-6-yl)phenol] gave an IC50 of 5.01 nM. `Oc1ccc(Cl)c(Cl)c1[C@@H]1Cc2nnc([C@@H]3CCN(C4CCOCC4)C3)n2C1` [Example 83, 3,4-Dichloro-2-((S)-3-((R)-1-(tetrahydro-2H-pyran-4-yl)pyrrolidin-3-yl)-6,7-dihydro-5H-pyrrolo[2,1-c][1,2,4]triazol-6-yl)phenol] showed an IC50 of 3.99 nM. `Cc1cc(-c2nnc3n2C[C@H](c2c(O)ccc(Cl)c2Cl)C3)ccn1` [Example 84, (S)-3,4-Dichloro-2-(3-(2-methylpyridin-4-yl)-6,7-dihydro-5H-pyrrolo[2,1-c][1,2,4]triazol-6-yl)phenol] showed an IC50 of 8.04 nM.
